Test results as given in article PMC3914206.

Assays:
[1] = target: T1, panel of 442 kinases (Homo sapiens, UniProt O76039); assay type: binding; design: KINOMEscan: ABL1(F317L)-phosphorylated / KINOMEscan: ABL1(H396P)-nonphosphorylated / KINOMEscan: ABL1(H396P)-phosphorylated / KINOMEscan: ABL1(M351T)-phosphorylated / KINOMEscan: ABL1(T315I)-phosphorylated / KINOMEscan: ABL1-nonphosphorylated / KINOMEscan: ABL1-phosphorylated / KINOMEscan: ACVR2A / KINOMEscan: ACVR2B / KINOMEscan: ADCK3 / KINOMEscan: ADCK4 / KINOMEscan: AKT1 / KINOMEscan: AKT3 / KINOMEscan: ALK / KINOMEscan: ARK5 / KINOMEscan: AURKA / KINOMEscan: AURKC / KINOMEscan: BIKE / KINOMEscan: BMPR1A / KINOMEscan: BMPR1B / KINOMEscan: BMX / KINOMEscan: BRK / KINOMEscan: BRSK1 / KINOMEscan: BRSK2 / KINOMEscan: CAMK1 / KINOMEscan: CAMK1D / KINOMEscan: CAMK1G / KINOMEscan: CAMK2A / KINOMEscan: CAMK2B / KINOMEscan: AAK1 / KINOMEscan: CAMK2D / KINOMEscan: CAMK2G / KINOMEscan: ABL1(F317I)-nonphosphorylated / KINOMEscan: ABL1(F317I)-phosphorylated / KINOMEscan: ABL1(F317L)-nonphosphorylated: unit: % Ctrl; settings: Compound Concentration 10 µM
T1 construct: purchased KINOMEscan
T1 sequence (O76039 1-960): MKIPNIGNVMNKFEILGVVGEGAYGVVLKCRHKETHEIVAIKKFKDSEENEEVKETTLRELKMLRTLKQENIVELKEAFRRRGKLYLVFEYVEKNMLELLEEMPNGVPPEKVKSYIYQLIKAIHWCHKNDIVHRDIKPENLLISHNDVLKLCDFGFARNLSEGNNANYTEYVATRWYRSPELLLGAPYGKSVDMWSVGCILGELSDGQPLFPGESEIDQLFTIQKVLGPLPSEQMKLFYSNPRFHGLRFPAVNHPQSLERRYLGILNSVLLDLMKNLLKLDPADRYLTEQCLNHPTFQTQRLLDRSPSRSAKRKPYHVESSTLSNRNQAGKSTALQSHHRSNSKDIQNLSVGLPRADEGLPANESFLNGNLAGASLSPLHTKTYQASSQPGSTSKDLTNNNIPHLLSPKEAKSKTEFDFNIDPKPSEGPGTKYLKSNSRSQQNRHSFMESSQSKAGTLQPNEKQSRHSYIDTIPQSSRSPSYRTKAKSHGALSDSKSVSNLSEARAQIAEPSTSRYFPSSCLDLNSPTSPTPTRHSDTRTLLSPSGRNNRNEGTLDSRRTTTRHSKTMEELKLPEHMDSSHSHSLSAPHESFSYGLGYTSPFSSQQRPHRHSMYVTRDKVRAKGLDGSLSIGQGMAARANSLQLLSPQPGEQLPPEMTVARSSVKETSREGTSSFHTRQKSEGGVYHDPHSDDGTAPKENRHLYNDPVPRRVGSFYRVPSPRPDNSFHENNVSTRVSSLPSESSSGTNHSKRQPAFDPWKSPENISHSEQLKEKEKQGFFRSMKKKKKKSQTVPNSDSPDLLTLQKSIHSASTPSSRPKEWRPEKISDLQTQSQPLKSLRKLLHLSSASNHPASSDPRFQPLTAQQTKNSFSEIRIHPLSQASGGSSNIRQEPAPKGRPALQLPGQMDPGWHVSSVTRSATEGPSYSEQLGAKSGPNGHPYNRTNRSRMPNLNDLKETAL
Excerpt: (§1) We assessed the selectivity of members of this scaffold using the KINOMEscan methodology across a near comprehensive panel of 442 kinases [[18,27]].

[2] = target: T2, panel of 442 kinases (Homo sapiens, UniProt P36894); assay type: binding; design: KINOMEscan: ABL1(F317L)-phosphorylated / KINOMEscan: ABL1(H396P)-nonphosphorylated / KINOMEscan: ABL1(H396P)-phosphorylated / KINOMEscan: ABL1(M351T)-phosphorylated / KINOMEscan: ABL1(T315I)-phosphorylated / KINOMEscan: ABL1-nonphosphorylated / KINOMEscan: ABL1-phosphorylated / KINOMEscan: ACVR2A / KINOMEscan: ACVR2B / KINOMEscan: ADCK3 / KINOMEscan: ADCK4 / KINOMEscan: AKT1 / KINOMEscan: AKT3 / KINOMEscan: ALK / KINOMEscan: ARK5 / KINOMEscan: AURKA / KINOMEscan: AURKC / KINOMEscan: BIKE / KINOMEscan: BMPR1A / KINOMEscan: BMPR1B / KINOMEscan: BMX / KINOMEscan: BRK / KINOMEscan: BRSK1 / KINOMEscan: BRSK2 / KINOMEscan: CAMK1 / KINOMEscan: CAMK1D / KINOMEscan: CAMK1G / KINOMEscan: CAMK2A / KINOMEscan: CAMK2B / KINOMEscan: AAK1 / KINOMEscan: CAMK2D / KINOMEscan: CAMK2G / KINOMEscan: ABL1(F317I)-nonphosphorylated / KINOMEscan: ABL1(F317I)-phosphorylated / KINOMEscan: ABL1(F317L)-nonphosphorylated: unit: % Ctrl; settings: Compound Concentration 10 µM
T2 construct: purchased KINOMEscan
T2 sequence (P36894 24-532): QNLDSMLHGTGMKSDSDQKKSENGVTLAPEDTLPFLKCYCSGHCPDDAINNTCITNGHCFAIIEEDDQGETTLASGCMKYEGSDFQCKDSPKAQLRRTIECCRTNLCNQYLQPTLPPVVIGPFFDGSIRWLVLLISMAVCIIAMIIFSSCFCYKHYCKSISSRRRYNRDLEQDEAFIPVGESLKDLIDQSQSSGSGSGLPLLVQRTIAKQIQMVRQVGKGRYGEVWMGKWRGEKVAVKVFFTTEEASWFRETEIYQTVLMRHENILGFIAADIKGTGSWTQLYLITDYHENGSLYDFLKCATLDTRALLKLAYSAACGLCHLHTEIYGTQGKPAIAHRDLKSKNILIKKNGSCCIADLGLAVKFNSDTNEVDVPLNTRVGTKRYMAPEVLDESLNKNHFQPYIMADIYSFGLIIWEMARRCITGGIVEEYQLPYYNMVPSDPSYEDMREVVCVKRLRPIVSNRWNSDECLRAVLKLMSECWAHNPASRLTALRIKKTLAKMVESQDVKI
Excerpt: as §1

SMILES | KINOMEscan: CDKL5 [1] | KINOMEscan: BMPR1A [2]
COc1cc(C(=O)N2CCC(N3CCN(C)CC3)CC2)ccc1Nc1ncc2c(n1)N(C)c1ccccc1C(=O)N2C [15 (LRRK2-IN-1)] | 100 | 100
COc1cc(C(=O)N2CCC(N3CCN(C)CC3)CC2)ccc1Nc1ncc2c(n1)N1CCc3cccc(c31)C(=O)N2C [Compound 24] | – | 67
COc1cc(C(=O)N2CCC(N3CCN(C)CC3)CC2)ccc1Nc1ncc2c(n1)N(C1CCCC1)c1ccccc1C(=O)N2C [Compound 25, 11-cyclopentyl-2-((2-methoxy-4-(4-(4-methylpiperazin-1-yl)piperidine-1-carbonyl)phenyl)amino)-5-methyl-5H-benzo[e]pyrimido[5,4-b][1,4]diazepin-6(11H)-one] | 93 | 96
CCOc1cc(C(=O)N2CCC(N3CCN(C)CC3)CC2)ccc1Nc1ncc2c(n1)N(C1CCCC1)c1ccccc1C(=O)N2C [Compound 26] | 100 | 100
